Measured values published in paper doi:10.1101/713214v1 (biorxiv, 2019).

Assays:
Type in all cases: biochemical
[1] = molecular target: MtbClpP1P2 (Mycobacterium tuberculosis, UniProt P9WPC5); assay: fluorogenic peptidase assay, Z-Gly-Gly-Leu-AMC
[2] = molecular target: EcClpP (Escherichia coli, UniProt P0A6G7); assay: fluorogenic peptidase assay, Suc-LY-AMC
[3] = molecular target: hClpP (Homo sapiens, UniProt Q16740); assay: fluorogenic peptidase assay, Suc-LY-AMC
[4] = molecular target: T1, SaClpP (Staphylococcus aureus, UniProt Q2G036); assay: fluorogenic peptidase assay, Suc-LY-AMC
T1 sequence (Q2G036 1-195): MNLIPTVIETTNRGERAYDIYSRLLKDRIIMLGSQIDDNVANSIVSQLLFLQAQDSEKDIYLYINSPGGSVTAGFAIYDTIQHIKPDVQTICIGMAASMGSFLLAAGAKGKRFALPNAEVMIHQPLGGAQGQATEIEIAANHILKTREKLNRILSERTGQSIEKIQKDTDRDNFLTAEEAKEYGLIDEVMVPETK

[5] = molecular target: PaClpP1 (Pseudomonas aeruginosa, UniProt Q9I2U1); assay: fluorogenic peptidase assay, Suc-LY-AMC
Sequence of PaClpP1 (Q9I2U1 whole entry): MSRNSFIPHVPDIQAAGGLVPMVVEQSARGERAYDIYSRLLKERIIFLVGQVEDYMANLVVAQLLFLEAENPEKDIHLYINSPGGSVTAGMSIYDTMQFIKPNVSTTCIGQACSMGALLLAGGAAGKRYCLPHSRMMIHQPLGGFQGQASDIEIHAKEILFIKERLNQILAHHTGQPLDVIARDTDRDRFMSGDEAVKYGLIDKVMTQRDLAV

Sequence of MtbClpP1P2 (P9WPC5 whole entry, looked up): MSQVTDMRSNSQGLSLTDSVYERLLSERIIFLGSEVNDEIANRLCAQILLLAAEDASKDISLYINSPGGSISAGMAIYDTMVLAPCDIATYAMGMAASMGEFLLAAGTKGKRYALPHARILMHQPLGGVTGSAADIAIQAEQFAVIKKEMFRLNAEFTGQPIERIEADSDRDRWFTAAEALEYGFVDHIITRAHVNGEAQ
Sequence of EcClpP (P0A6G7 15-207): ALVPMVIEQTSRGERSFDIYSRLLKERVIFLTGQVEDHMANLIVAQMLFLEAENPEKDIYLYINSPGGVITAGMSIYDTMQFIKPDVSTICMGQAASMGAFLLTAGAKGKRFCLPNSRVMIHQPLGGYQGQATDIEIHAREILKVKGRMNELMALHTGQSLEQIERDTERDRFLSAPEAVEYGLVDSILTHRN
Sequence of hClpP (Q16740 58-277): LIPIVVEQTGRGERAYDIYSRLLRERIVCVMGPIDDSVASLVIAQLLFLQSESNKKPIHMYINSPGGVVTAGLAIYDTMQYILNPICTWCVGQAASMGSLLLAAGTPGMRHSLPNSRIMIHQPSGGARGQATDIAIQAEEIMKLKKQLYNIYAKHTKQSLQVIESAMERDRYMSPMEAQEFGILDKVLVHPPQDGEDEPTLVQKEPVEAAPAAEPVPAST

| Compound | IC50 [1] | IC50 [2] | IC50 [3] | IC50 [4] | IC50 [5] |
| --- | --- | --- | --- | --- | --- |
| Cc1cc2c(F)c(Oc3ncnn4cc(OC[C@@H](C)O)c(C)c34)ccc2[nH]1 [brivanib] | 12.5 µM | – | – | – | – |
| COc1cc2c(Oc3ccc4[nH]c(C)cc4c3F)ncnc2cc1OCCCN1CCCC1 [cediranib] | 3.4 ± 0.7 µM | > 100 µM | 36.6 ± 0.5 µM | > 100 µM | > 100 µM |
